Laboratory results from the supplement of paper PMC8671470.
± gives the standard deviation of the averaged measurements.

Legend:
Conditions in all cases: 72 h
KCL-22 [1] = test: cell viability (% survival relative to DMSO control, bortezomib = 0%); higher = less cytotoxic
Procedure, shortened: (§1)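 Fifteen myeloid leukaemia cell lines (10 AML, 5 CML) were seeded at a density titrated to the linear growth range. They went into 384-well plates with compounds pre-printed at 1, 10, 100, 1000 or 10000 nM in duplicate. After 72 h at 37 °C with 5% CO2, viability was read by CellTiter-Glo luminescence. Values are percent survival, with vehicle set to 100% and a 10 µM positive control to 0%, averaged over the duplicates.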

K-562 [2] = test: as above
Procedure, shortened: as §1

LAMA-84 [3] = test: as above
Procedure, shortened: as §1

MV4-11 [4] = test: as above
Procedure, shortened: as §1

MOLM-13 [5] = test: as above
Procedure, shortened: as §1

HL-60 [6] = test: as above
Procedure, shortened: as §1

SHI-1 [7] = test: as above
Procedure, shortened: as §1

KG-1 [8] = test: as above
Procedure, shortened: as §1

ML-2 [9] = test: as above
Procedure, shortened: as §1

HEL [10] = test: as above
Procedure, shortened: as §1

BV-173 [11] = test: as above
Procedure, shortened: as §1

KCL-22 [12] = system: KCL-22
Procedure, shortened: (§2)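 For the IC50, dose–response curves were fitted with a log-logistic model. The data came from fifteen myeloid leukaemia cell lines grown in RPMI 1640 at densities in the linear growth range and incubated in 384-well plates for 72 h at 37 °C under 5% CO2. Doses were five tenfold steps from 1 to 10,000 nM in duplicate, and luminescent ATP viability was normalised to vehicle and to a positive control at 10 µM before four-parameter fitting.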

NOMO-1 = system: NOMO-1
Procedure, shortened: as §2

K-562 [13] = system: K-562
Procedure, shortened: as §2

LAMA-84 [14] = system: LAMA-84
Procedure, shortened: as §2

KU-812 = system: KU-812
Procedure, shortened: as §2

THP-1 = system: THP-1
Procedure, shortened: as §2

MV4-11 [15] = system: MV4-11
Procedure, shortened: as §2

MOLM-13 [16] = system: MOLM-13
Procedure, shortened: as §2

Mono-Mac-6 = system: Mono-Mac-6
Procedure, shortened: as §2

HL-60 [17] = system: HL-60
Procedure, shortened: as §2

SHI-1 [18] = system: SHI-1
Procedure, shortened: as §2

KG-1 [19] = system: KG-1
Procedure, shortened: as §2

ML-2 [20] = system: ML-2
Procedure, shortened: as §2

HEL [21] = system: HEL
Procedure, shortened: as §2

BV-173 [22] = system: BV-173
Procedure, shortened: as §2

HL-60 [23] = test: cell viability (% survival relative to DMSO control); higher = less cytotoxic
Procedure, shortened: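 Four-parameter log-logistic fits in drc and PharmacoGx supplied area under the curve where it is given. Underlying viability came from CellTiter-Glo, normalised to DMSO and proteasome-inhibitor wells, with the proteasome inhibitor at 10 μM. HL-60 cells in RPMI 1640 plus 10% FBS had been rescreened against the full library at five tenfold concentrations of 1–10,000 nM, in duplicate on 384-well plates, with DMSO or 100 nM of one of three metabolic inhibitors, for 72 h at 37 °C, 5% CO2.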

## OCC(CO)N[C@H]1C[C@](O)(CO)[C@@H](O)[C@H](O)[C@H]1O [Voglibose]
KCL-22 [1]; 1 nM
  cell viability: 99.4%
KCL-22 [1]; 10 nM
  cell viability: 97.1%
KCL-22 [1]; 100 nM
  cell viability: 98%
KCL-22 [1]; 1000 nM
  cell viability: 98.1%
KCL-22 [1]; 10000 nM
  cell viability: 111%
K-562 [2]; 1 nM
  cell viability: 97.9%
K-562 [2]; 10 nM
  cell viability: 107%
K-562 [2]; 100 nM
  cell viability: 113%
K-562 [2]; 1000 nM
  cell viability: 89.4%
K-562 [2]; 10000 nM
  cell viability: 99.3%
LAMA-84 [3]; 1 nM
  cell viability: 102%
LAMA-84 [3]; 10 nM
  cell viability: 105%
LAMA-84 [3]; 100 nM
  cell viability: 99.6%
LAMA-84 [3]; 1000 nM
  cell viability: 94.6%
LAMA-84 [3]; 10000 nM
  cell viability: 103%
MV4-11 [4]; 1 nM
  cell viability: 106%
MV4-11 [4]; 10 nM
  cell viability: 107%
MV4-11 [4]; 100 nM
  cell viability: 113%
MV4-11 [4]; 1000 nM
  cell viability: 84.7%
MV4-11 [4]; 10000 nM
  cell viability: 52.7%
MOLM-13 [5]; 1 nM
  cell viability: 117%
MOLM-13 [5]; 10 nM
  cell viability: 94.4%
MOLM-13 [5]; 100 nM
  cell viability: 127%
MOLM-13 [5]; 1000 nM
  cell viability: 70%
MOLM-13 [5]; 10000 nM
  cell viability: 70.1%
HL-60 [6]; 1 nM
  cell viability: 119%
HL-60 [6]; 10 nM
  cell viability: 99.5%
HL-60 [6]; 100 nM
  cell viability: 116%
HL-60 [6]; 1000 nM
  cell viability: 88.2%
HL-60 [6]; 10000 nM
  cell viability: 94.6%
SHI-1 [7]; 1 nM
  cell viability: 106%
SHI-1 [7]; 10 nM
  cell viability: 108%
SHI-1 [7]; 100 nM
  cell viability: 100%
SHI-1 [7]; 1000 nM
  cell viability: 96%
SHI-1 [7]; 10000 nM
  cell viability: 94.4%
KG-1 [8]; 1 nM
  cell viability: 95.6%
KG-1 [8]; 10 nM
  cell viability: 102%
KG-1 [8]; 100 nM
  cell viability: 107%
KG-1 [8]; 1000 nM
  cell viability: 95.6%
KG-1 [8]; 10000 nM
  cell viability: 106%
ML-2 [9]; 1 nM
  cell viability: 109%
ML-2 [9]; 10 nM
  cell viability: 110%
ML-2 [9]; 100 nM
  cell viability: 107%
ML-2 [9]; 1000 nM
  cell viability: 95.2%
ML-2 [9]; 10000 nM
  cell viability: 111%
HEL [10]; 1 nM
  cell viability: 124%
HEL [10]; 10 nM
  cell viability: 107%
HEL [10]; 100 nM
  cell viability: 97.3%
HEL [10]; 1000 nM
  cell viability: 99.1%
HEL [10]; 10000 nM
  cell viability: 118%
BV-173 [11]; 1 nM
  cell viability: 113%
BV-173 [11]; 10 nM
  cell viability: 112%
BV-173 [11]; 100 nM
  cell viability: 99.3%
BV-173 [11]; 1000 nM
  cell viability: 93.8%
BV-173 [11]; 10000 nM
  cell viability: 102%
KCL-22 [12]
  IC50 (cell viability): > 10 µM
NOMO-1
  IC50 (cell viability): > 10 µM
K-562 [13]
  IC50 (cell viability): > 10 µM
LAMA-84 [14]
  IC50 (cell viability): > 10 µM
KU-812
  IC50 (cell viability): > 10 µM
THP-1
  IC50 (cell viability): > 10 µM
MV4-11 [15]
  IC50 (cell viability): 6.47 µM
MOLM-13 [16]
  IC50 (cell viability): > 10 µM
Mono-Mac-6
  IC50 (cell viability): > 10 µM
HL-60 [17]
  IC50 (cell viability): > 10 µM
SHI-1 [18]
  IC50 (cell viability): > 10 µM
KG-1 [19]
  IC50 (cell viability): > 10 µM
ML-2 [20]
  IC50 (cell viability): > 10 µM
HEL [21]
  IC50 (cell viability): > 10 µM
BV-173 [22]
  IC50 (cell viability): > 10 µM
HL-60 [23]; 0.001 µM, co-treatment: AZD3965 100 nM
  cell viability: 96.2 ± 11%
HL-60 [23]; 0.001 µM, co-treatment: DMSO vehicle
  cell viability: 99.5 ± 2.6%
HL-60 [23]; 0.001 µM, co-treatment: GSK2194069 100 nM
  cell viability: 104 ± 19%
HL-60 [23]; 0.001 µM, co-treatment: pictilisib 100 nM
  cell viability: 113 ± 7.6%
HL-60 [23]; 0.01 µM, co-treatment: AZD3965 100 nM
  cell viability: 103 ± 2.7%
HL-60 [23]; 0.01 µM, co-treatment: DMSO vehicle
  cell viability: 99.9 ± 7%
HL-60 [23]; 0.01 µM, co-treatment: GSK2194069 100 nM
  cell viability: 104 ± 7.5%
HL-60 [23]; 0.01 µM, co-treatment: pictilisib 100 nM
  cell viability: 112 ± 7.8%
HL-60 [23]; 0.1 µM, co-treatment: AZD3965 100 nM
  cell viability: 100 ± 4.9%
HL-60 [23]; 0.1 µM, co-treatment: DMSO vehicle
  cell viability: 100 ± 5.8%
HL-60 [23]; 0.1 µM, co-treatment: GSK2194069 100 nM
  cell viability: 104 ± 3.5%
HL-60 [23]; 0.1 µM, co-treatment: pictilisib 100 nM
  cell viability: 106 ± 12%
HL-60 [23]; 1 µM, co-treatment: AZD3965 100 nM
  cell viability: 96.5 ± 4.9%
HL-60 [23]; 1 µM, co-treatment: DMSO vehicle
  cell viability: 99.4 ± 2.4%
HL-60 [23]; 1 µM, co-treatment: GSK2194069 100 nM
  cell viability: 79.9 ± 24%
HL-60 [23]; 1 µM, co-treatment: pictilisib 100 nM
  cell viability: 81.9 ± 38%
HL-60 [23]; 10 µM, co-treatment: AZD3965 100 nM
  cell viability: 93.58 ± 0.69%
HL-60 [23]; 10 µM, co-treatment: DMSO vehicle
  cell viability: 99.5 ± 1.4%
HL-60 [23]; 10 µM, co-treatment: GSK2194069 100 nM
  cell viability: 97.3 ± 1.8%
HL-60 [23]; 10 µM, co-treatment: pictilisib 100 nM
  cell viability: 99.1 ± 1.8%
